Earlier results, collected in patent US6462083B1, “Suppository base” (priority 2001, dated 2002).

Tested on: blood flow to the site of administration
Conditions: laser Doppler imaging; no species, dose or data printed

CCCCCCCC/C=C\CCCCCCCCCCCC(=O)O [Erucic acid, (Z)-13-Docosenoic acid]
blood flow to the site of administration: enhance blood flow to the site of administration
